Results taken from patent US20250270190A1, “KIT INHIBITORS” (BLUEPRINT MEDICINES CORPORATION, priority 2022, published 2025).

Each compound was assayed against T1, c-kit autophosphorylation (Phospho c-Kit Tyr721) in HMC 1.1 (exon 11/13) cells, V654A (Homo sapiens, UniProt P10721, V560G/V654A) (assay: pKIT Meso Scale Discovery (MSD) assay, inhibition of autophosphorylation of KIT, HMC1.1_V654A). Conditions: Table 1, cell line not named for Table 1, b1056 names pKIT HMC1.1_V654A, read-out: Code (IC50 for inhibition of autophosphorylation of KIT, pKIT MSD assay).
T1 construct: endogenous in cells; host or cells: HMC 1.1 (exon 11/13) cells
T1 sequence (P10721 26-976 V560G/V654A): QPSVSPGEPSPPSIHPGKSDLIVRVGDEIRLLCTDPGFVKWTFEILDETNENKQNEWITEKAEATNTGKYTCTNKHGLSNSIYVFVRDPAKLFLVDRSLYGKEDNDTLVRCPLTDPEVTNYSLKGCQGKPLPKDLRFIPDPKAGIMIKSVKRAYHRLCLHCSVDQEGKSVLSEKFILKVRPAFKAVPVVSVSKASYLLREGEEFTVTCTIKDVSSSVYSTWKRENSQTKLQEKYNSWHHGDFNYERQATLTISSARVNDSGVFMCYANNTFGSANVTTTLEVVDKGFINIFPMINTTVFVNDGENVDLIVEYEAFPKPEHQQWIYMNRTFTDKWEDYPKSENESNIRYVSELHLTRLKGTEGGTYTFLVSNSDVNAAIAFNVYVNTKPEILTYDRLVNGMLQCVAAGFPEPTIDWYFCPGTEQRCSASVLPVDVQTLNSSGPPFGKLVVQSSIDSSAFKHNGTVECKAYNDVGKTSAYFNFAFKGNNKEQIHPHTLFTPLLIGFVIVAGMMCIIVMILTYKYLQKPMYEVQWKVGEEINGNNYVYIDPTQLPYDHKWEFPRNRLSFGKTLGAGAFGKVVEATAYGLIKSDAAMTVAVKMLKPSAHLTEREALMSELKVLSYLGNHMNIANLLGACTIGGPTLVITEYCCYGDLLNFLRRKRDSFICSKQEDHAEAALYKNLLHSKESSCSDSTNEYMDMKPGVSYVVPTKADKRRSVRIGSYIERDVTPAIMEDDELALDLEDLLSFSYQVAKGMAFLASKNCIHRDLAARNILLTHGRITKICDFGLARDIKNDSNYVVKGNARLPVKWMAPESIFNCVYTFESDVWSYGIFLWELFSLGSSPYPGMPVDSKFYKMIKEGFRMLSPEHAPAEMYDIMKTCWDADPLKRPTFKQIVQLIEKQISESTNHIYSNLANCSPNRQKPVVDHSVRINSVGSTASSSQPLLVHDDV
Assay type: cell-based
Source text: In this MSD assay, specific capture antibodies for the analytes were coated in arrays in each well of a 96-well carbon electrode plate surface. The detection system used SULFO-TAG™ labels that emit light upon electrochemical stimulation initiated at the electrode surfaces of the […] and MULTI-SPOT® plates. The electrical stimulation was decoupled from the output signal, which was light and generated assays with minimal background. The goal of this assay was to assess the percent inhibition of autophosphorylation of c-kit in cells when treated with compounds of the disclosure in a dose-dependent manner.
HMC1.1 cells were maintained in IMDM media supplemented with 20% Calf Serum with Iron and 100 units/mL Penicillin-Streptomycin and grown in a 37° C. humidified tissue culture incubator. HMC1.1 cells were passaged by 1:5 dilution into fresh IMDM media supplemented with 20% Calf Serum with Iron and 100 units/mL Penicillin-Streptomycin every 5-7 days and were discarded after 20 passages.
Seeding was performed as follows: HMC cells were brought to 1×10^6 cells/mL in fresh phenol red free, serum-free, iron-free IDM media with Pen/Strep; cells were seeded/plated into respective U-bottom plate by dispensing 50 μL/well (50,000 cells) using the Multidrop, and covered and incubated cells at 37° C. in a humidified tissue culture incubator for 4 hours (starvation).
Dosing was performed as follows: The compound mother plate was prepared by adding 16 μL of compound to 24 μL of DMSO to row A, odd-numbered columns of screen matrix plate. […] Intermediate plates were prepared in V-bottom plates by dispensing 98 μL of phenol red free, serum free IMDM media with Pen/Strep into all wells. 2 μL DMSO or 2 μL 10 mM staurosporine was added to appropriate control wells. At the end of four hours, the Bravo protocol 10 cpds vertical dose MSD 2 U-plates 96-well was used to: add 2 μL from the compound plate to the intermediate plate and dose cells with 7 μL from the intermediate plate. The cells were covered and incubated at 37° C. in a humidified tissue culture incubator for 90 min. The complete lysis buffer was prepared with AlphaLISA 5× Lysis Buffer supplemented with 1× protease inhibitor cocktail and kept on ice. The cells were pelleted by centrifuging plate at 2500×g for 5 min, 4° C. and media removed. Complete lysis buffer was added (14 μL/well). The cells were covered and shaken at 4° C. on a plate shaker at 600 rpm for 30 min and kept cold
The MSD protocol was preformed as follows: Tris Wash Buffer (2L) was prepared by diluting 10× stock of Tris Wash Buffer to 1× in water. Blocking Solution was prepared by dissolving 600 mg Blocker A in 20 mL 1× Trish Wash Buffer (per plate). The Antibody Dilution Buffer was prepared by mixing 1 mL Blocking solution and 2 mL 1× Trish Wash Buffer (per plate) and kept on ice. Blocking Solution was added (150 μL/well) to each MSD plate using a multichannel repeater pipette. The plate was covered and incubated at room temperature on a plate shaker at 700 rpm for hr. The Bio Tek protocol RL-96w-wash-MSD_stacker_fromC was used to wash plates 3× with 150 μL/well. Cells were pelleted by centrifuging lysate plates at 2500×g for 5 mins. The Bravo protocol was used (transfer 25 ul supernatants from V-96 to assay plate) to transfer 25 μL sample lysate per well to each MSD plate. The plates were covered and incubated at room temperature on a plate shaker at 700 rpm for hr. The Bio Tek protocol RL-96w-wash-MSD_stacker_fromC was used to wash plates 3× with 150 μL/well. The Detection Antibody Solution was prepared by diluting the 60 μL of the 50× antibody stock in 2.94 mL of the Antibody Dilution Buffer (per plate) and kept on ice. 25 μL/well of detection antibody solution was added to each MSD plate. The plates were covered and incubated at room temperature on a plate shaker at 700 rpm for 1 hr. The Read Buffer was prepared by diluting 5 mL of 4× stock of Read Buffer to 1× in 15 mL water (per plate).

Nc1cc(Nc2cc(OC3CC3)c(-c3cnn([C@H]4CCOC4)c3)cn2)nc(C(F)F)n1 (single isomer, unassigned) [Compound 164, (S)—N4-(4-cyclopropoxy-5-(1-(tetrahydrofuran-3-yl)-1H-pyrazol-4-yl)pyridin-2-yl)-2-(difluoromethyl)pyrimidine-4,6-diamine or (R)—N4-(4-cyclopropoxy-5-(1-(tetrahydrofuran-3-yl)-1H-pyrazol-4-yl)pyridin-2-yl)-2-(difluoromethyl)pyrimidine-4,6-diamine] and Nc1cc(Nc2cc(OC3CC3)c(-c3cnn([C@@H]4CCOC4)c3)cn2)nc(C(F)F)n1 (single isomer, unassigned) [Compound 165, (R)—N4-(4-cyclopropoxy-5-(1-(tetrahydrofuran-3-yl)-1H-pyrazol-4-yl)pyridin-2-yl)-2-(difluoromethyl)pyrimidine-4,6-diamine or (S)—N4-(4-cyclopropoxy-5-(1-(tetrahydrofuran-3-yl)-1H-pyrazol-4-yl)pyridin-2-yl)-2-(difluoromethyl)pyrimidine-4,6-diamine] cannot be ordered by IC50: less than 0.01 µM for the first, less than 0.01 µM for the second.

CN[C@@H](C)Cn1cc(-c2cnc(Nc3cc(N)nc(C(F)F)n3)cc2OC(F)(F)F)cn1 (single isomer, unassigned) [Compound 195, (S)-2-(difluoromethyl)-N4-(5-(1-(2-(methylamino)propyl)-1H-pyrazol-4-yl)-4-(trifluoromethoxy)pyridin-2-yl)pyrimidine-4,6-diamine or (R)-2-(difluoromethyl)-N4-(5-(1-(2-(methylamino)propyl)-1H-pyrazol-4-yl)-4-(trifluoromethoxy)pyridin-2-yl)pyrimidine-4,6-diamine] and CN[C@H](C)Cn1cc(-c2cnc(Nc3cc(N)nc(C(F)F)n3)cc2OC(F)(F)F)cn1 (single isomer, unassigned) [Compound 196, (R)-2-(difluoromethyl)-N4-(5-(1-(2-(methylamino)propyl)-1H-pyrazol-4-yl)-4-(trifluoromethoxy)pyridin-2-yl)pyrimidine-4,6-diamine or (S)-2-(difluoromethyl)-N4-(5-(1-(2-(methylamino)propyl)-1H-pyrazol-4-yl)-4-(trifluoromethoxy)pyridin-2-yl)pyrimidine-4,6-diamine] cannot be ordered by IC50: less than 0.01 µM for the first, less than 0.01 µM for the second.

First: CNC(=O)c1cnc(Nc2cc(N)nc(CF)n2)cc1NC [Compound 1, 6-((6-amino-2-(fluoromethyl)pyrimidin-4-yl)amino)-N-methyl-4-(methylamino)nicotinamide]
Second: CNC(=O)c1cnc(Nc2cc(N)nc(CF)n2)cc1NC(C)C [Compound 9, 6-((6-amino-2-(fluoromethyl)pyrimidin-4-yl)amino)-4-(isopropylamino)-N-methylnicotinamide]
The IC50 of the first is higher: 0.01 to 0.04 µM for the first, less than 0.01 µM for the second. The second is the more potent here.

First: CNc1cc(Nc2cc(N)nc(C(F)F)n2)ncc1C(N)=O [Compound 2, 6-((6-amino-2-(difluoromethyl)pyrimidin-4-yl)amino)-4-(methylamino)nicotinamide]
Second: CNC(=O)c1cnc(Nc2cc(N)nc(C(F)F)n2)cc1NC [Compound 4, 6-((6-amino-2-(difluoromethyl)pyrimidin-4-yl)amino)-N-methyl-4-(methylamino)nicotinamide]
The IC50 of the first is higher: greater than 0.04 µM for the first, less than 0.01 µM for the second.

First: CNC(=O)c1cnc(Nc2cc(N)nc([C@H](C)F)n2)cc1NC [Compound 3, (S)-6-((6-amino-2-(1-fluoroethyl)pyrimidin-4-yl)amino)-N-methyl-4-(methylamino)nicotinamide]
Second: CCNc1cc(Nc2cc(N)nc([C@@H](C)F)n2)ncc1C(=O)NC [Compound 10, (R)-6-((6-amino-2-(1-fluoroethyl)pyrimidin-4-yl)amino)-4-(ethylamino)-N-methylnicotinamide]
The IC50 of the first is lower: 0.01 to 0.04 µM for the first, greater than 0.04 µM for the second. The first is the more potent here.

First: [2H]C([2H])([2H])Nc1cc(Nc2cc(N)nc(C(F)F)n2)ncc1C(=O)NC [Compound 5, 6-((6-amino-2-(difluoromethyl)pyrimidin-4-yl)amino)-N-methyl-4-((methyl-d3)amino)nicotinamide]
Second: [2H]C([2H])([2H])NC(=O)c1cnc(Nc2cc(N)nc(C(F)F)n2)cc1NC [Compound 6, 6-((6-amino-2-(difluoromethyl)pyrimidin-4-yl)amino)-N-(methyl-d3)-4-(methylamino)nicotinamide]
The IC50 of the first is lower: less than 0.01 µM for the first, 0.01 to 0.04 µM for the second.

First: CNc1cc(Nc2cc(N)nc(CF)n2)ncc1C(=O)NC1CC1 [Compound 7, 6-((6-amino-2-(fluoromethyl)pyrimidin-4-yl)amino)-N-cyclopropyl-4-(methylamino)nicotinamide]
Second: CNC(=O)c1cnc(Nc2cc(N)nc(CF)n2)cc1NC1CC1 [Compound 8, 6-((6-amino-2-(fluoromethyl)pyrimidin-4-yl)amino)-4-(cyclopropylamino)-N-methylnicotinamide]
The IC50 of the first is higher: 0.01 to 0.04 µM for the first, less than 0.01 µM for the second. The second is the more potent here.

CCNc1cc(Nc2cc(N)nc([C@H](C)F)n2)ncc1C(=O)NC [Compound 11, (S)-6-((6-amino-2-(1-fluoroethyl)pyrimidin-4-yl)amino)-4-(ethylamino)-N-methylnicotinamide] and CCNc1cc(Nc2cc(N)nc(C(F)F)n2)ncc1C(=O)NC [Compound 12, 6-((6-amino-2-(difluoromethyl)pyrimidin-4-yl)amino)-4-(ethylamino)-N-methylnicotinamide] cannot be ordered by IC50: less than 0.01 µM for the first, less than 0.01 µM for the second.

First: CCNC(=O)c1cnc(Nc2cc(N)nc(C(F)F)n2)cc1NC [Compound 13, 6-((6-amino-2-(difluoromethyl)pyrimidin-4-yl)amino)-N-ethyl-4-(methylamino)nicotinamide]
Second: CNC(=O)c1cnc(Nc2cc(N)nc([C@@H](C)F)n2)cc1NC(C)C [Compound 20, (R)-6-((6-amino-2-(1-fluoroethyl)pyrimidin-4-yl)amino)-4-(isopropylamino)-N-methylnicotinamide]
The IC50 of the first is lower: 0.01 to 0.04 µM for the first, greater than 0.04 µM for the second.

Compared with CNC(=O)c1cnc(Nc2cc(N)nc(CF)n2)cc1NC1CCC1 [Compound 14, 6-((6-amino-2-(fluoromethyl)pyrimidin-4-yl)amino)-4-(cyclobutylamino)-N-methylnicotinamide], CNC(=O)c1cnc(Nc2cc(N)nc(CF)n2)cc1NC1COC1 [Compound 19, 6-((6-amino-2-(fluoromethyl)pyrimidin-4-yl)amino)-N-methyl-4-(oxetan-3-ylamino)nicotinamide] is higher in IC50: less than 0.01 µM for the first, greater than 0.04 µM for the second.

Compared with CNC(=O)c1cnc(Nc2cc(N)nc([C@H](C)F)n2)cc1NC1CC1 [Compound 15, (S)-6-((6-amino-2-(1-fluoroethyl)pyrimidin-4-yl)amino)-4-(cyclopropylamino)-N-methylnicotinamide], CNC(=O)c1cnc(Nc2cc(N)nc([C@H](C)F)n2)cc1NC(C)C [Compound 21, (S)-6-((6-amino-2-(1-fluoroethyl)pyrimidin-4-yl)amino)-4-(isopropylamino)-N-methylnicotinamide] is lower in IC50: 0.01 to 0.04 µM for the first, less than 0.01 µM for the second.

CNc1cc(Nc2cc(N)nc(C(F)F)n2)ncc1-c1cn(C)nn1 [Compound 17, 2-(difluoromethyl)-N4-(5-(1-methyl-1H-1,2,3-triazol-4-yl)-4-(methylamino)pyridin-2-yl)pyrimidine-4,6-diamine] and CNc1cc(Nc2cc(N)nc(C(F)F)n2)ncc1-c1cnn(C)n1 [Compound 18, 2-(difluoromethyl)-N4-(5-(2-methyl-2H-1,2,3-triazol-4-yl)-4-(methylamino)pyridin-2-yl)pyrimidine-4,6-diamine] fall in the same range of IC50: 0.01 to 0.04 µM for the first, 0.01 to 0.04 µM for the second.
